Assay results taken from US20100216875A1, “METHODS OF TREATING ALZHEIMER'S DISEASE” (priority 2006, published 2010).

Assays:
[1] = healthy young males, cited from earlier work
muscular dystrophy = conditions: Phase I through III trials, Japan; cited from earlier work
[2] = system: transgenic APPIn mice (London mutant human APP); test: brain Aβ and amyloid plaque load in transgenic APPIn mice; type: in vivo, mouse; conditions: icv 0.015 mg/kg/day, 28 days; for reduction of amyloid plaque load: cortex
Protocol: Transgenic mice expressing human APP containing the London mutation (APPIn) mimic AD function and pathology in that they are cognitively deficient, have brain amyloid plaque and elevated Aβ (8). […] CA074Me or E64d were administered by icy infusion in brains (0.015 mg/kg/day) for 28 days (8 animals per treatment group).
APPIn mice express the clinical mutant human APP (APP[V717I]) which has a mutation at the γ-secretase site that results in the overproduction of Aβ and the behavioral and neuropathology that develop an AD phenotype (8). These mice show early stage deficits in cognition and memory at 3-9 months age. At the later age of 8-12 months, amyloid plaques have developed in brains of these mice, with increased levels of Aβ40 and Aβ42 peptides in the brain. […] Thus, this AD mouse model allows testing of select reversible compounds to improve cognition and to reduce brain levels of Aβ peptides and amyloid plaques.
(§1) Direct icy infusion into the brain was the first route of administration to be tested to establish the effectiveness of reversible inhibitors in the brain to provide cognitive improvement, and reduction in brain Aβ peptides and amyloid plaques. Icy infusion was performed as described above for the irreversible inhibitors with use of the Alzet minipump. The initial dose utilized was the same dosage used for E64d and CA074Me in the APPIn mice or APPswe/In mice Administration of these compounds began at approximately 1-2 months of age and infusion was conducted for periods of 1, 2, 4, and 8 months (or other time periods). Administration of the select reversible compounds by direct icy infusion into mouse brains was conducted initially at 0.025 μl/hr of 1 mg/ml, other doses may be examined based on results with the first dose. Each time point was conducted with about 8-10 animals and 8-10 normal control animals (age-matched) (or greater number of mice per treatment group, if necessary, for appropriate statistical evaluation). At the end of each of these infusion periods, cognitive testing and assessment of Aβ peptide levels with plaque pathology was evaluated. At each of these time points, mice were tested for cognition, and then sacrificed for evaluation of Aβ and neuropathology in the brain
(§2) After behavioral testing was completed, the mice were sacrificed for analyses of Aβ40 and Aβ42 peptide levels, and neuropathology. One half brain (one hemisphere) was utilized to prepare brain extracts for measurement of Aβ40 and Aβ42 levels by ELISA assays, and the other half brain was used for neuropathological evaluation. Procedures for preparation of brain extracts and ELISA assays for Aβ peptides are those used for analyses of guinea pig brains
(§3) Aβ-related neuropathology was assessed in cortex and hippocampus of brains. The relative extent of Aβ immunoreactivity in neurons and glial cells was assessed. Immunostaining for Aβ was conducted as described previously (58) Aβ-related neuropathology was assessed in cortex and hippocampus of brains, as well as other regions of the brain as controls. Brain tissue was fixed in 4% paraformaldehyde overnight, and then processed to paraffin. Serial sections were obtained, deparaffinized and washed in TBS buffer. Each section was blocked with appropriate normal serum (mouse or rabbit), and subjected to primary anti-Aβ antibody for detection of amyloid deposits. Sections were then stained with DAB ([…]) with the Vector ABC Elite kit (Vector Laboratories). Amyloid areas were imaged with microscopic computer-assisted analysis system using the NIH Image Analysis Software.

aspartyl protease, BACE1 = aspartyl protease, BACE1 (Homo sapiens, UniProt P56817); test: effect on BACE1; type: biochemical
Sequence of aspartyl protease, BACE1 (P56817 46-501): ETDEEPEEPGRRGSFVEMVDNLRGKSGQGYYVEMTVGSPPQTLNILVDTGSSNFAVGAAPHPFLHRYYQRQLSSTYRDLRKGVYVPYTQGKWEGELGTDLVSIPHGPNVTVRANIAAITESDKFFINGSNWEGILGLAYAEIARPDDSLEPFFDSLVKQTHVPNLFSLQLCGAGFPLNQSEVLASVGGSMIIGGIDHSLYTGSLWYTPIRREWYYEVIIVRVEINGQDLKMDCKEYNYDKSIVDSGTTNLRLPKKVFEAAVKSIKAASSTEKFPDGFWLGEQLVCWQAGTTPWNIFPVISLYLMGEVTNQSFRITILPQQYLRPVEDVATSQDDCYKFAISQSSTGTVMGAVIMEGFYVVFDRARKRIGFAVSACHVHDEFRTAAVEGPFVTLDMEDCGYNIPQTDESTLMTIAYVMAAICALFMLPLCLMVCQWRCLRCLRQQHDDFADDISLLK

APPswe/In mice = test: amyloid load, Aβ, CTFβ and sAPPα in APPswe/In mice; type: in vivo, mouse; conditions: Mean + % SEM
Protocol: Cathepsin B inhibitors were also evaluated in another transgenic mouse that expressed human APP containing both the Swedish mutant β-secretase and the London γ-secretase site (APPswe/In).
The mouse model of AD expressing human APP containing the Swe mutant β-secretase site and the London mutation (APPswe/In) also overproduce Aβ, and develop neuropathology and behavior that mimic AD. APPswe/In was generated by site-directed mutagenesis at the β-secretase site of the APPIn to convert Lys-Met to the mutant Asn-Leu. Both APPswe/In and APPIn mouse strains were created in a C57BL/6 mouse background using the Thy-1.2 expression cassette driven by the Thy-1 promoter containing an SV40 polyadenylation site. The APPswe/In mice differ from the APPIn in that APPswe/In mice contain the Swedish mutant β-secretase site rather than the wt β-secretase site found in APPIn.
as §1, §2, §3

[3] = mice, rats and dogs; cited from earlier work
[4] = system: primary neuronal chromaffin cells; conditions: cited from earlier work
[5] = system: β-secretase activity as measured by the APP-derived CTFβ fragment; test: guinea pig brain CTFβ (β-secretase activity) after icv infusion; type: in vivo; conditions: 0.15 mg/kg/day infused for 7 days; western blot
Protocol: To better evaluate the effects of CA074Me on β-secretase activity, relative brain levels of CTRβ were assessed by western blots. The CTRβ fragment results from processing of APP at the β-secretase site, which produces the C-terminal β-secretase fragment (CTFβ) of 12 kDA on SDS-PAGE gels.
Brains from animals described in relation to FIG. 10 were extracted and analyzed for CTFβ by […].
Cathepsin B inhibitors were administered directly into the brain by icy infusion with minipumps in time course studies at different doses. Guinea pigs were infused with compounds using Alzet pumps (2.5 μl/hr, with compounds at 1 mg/ml in saline) for 7 and 30 days, and other times. This initial dose of compound was selected because E64d and CA074Me are effective at this dose. Each treatment group consisted of eight to ten guinea pigs, including the vehicle control group.

Structure (SMILES) | pulse, resting blood pressure, body temperature, grip force ([1]; 5 mg/kg/day oral) | subjective or objective symptoms, clinical tests ([1]; 5 mg/kg/day oral) | absorption ([1]; oral) | accumulation ([1]; oral) | total dose collected in urine ([1]; oral) | efficacy in muscular dystrophy (muscular dystrophy) | decrease in brain Aβ40 [2] [%] | decrease in brain Aβ42 [2] [%] | reduction of amyloid plaque load [2] | effect on BACE1 (aspartyl protease, BACE1) | Amyloid load (APPswe/In mice) | Aβ40 (APPswe/In mice) | Aβ42 (APPswe/In mice) | CTFβ (APPswe/In mice) | sAPPα (APPswe/In mice) | therapeutic window / LD50 [3] | CTFβ production in primary chromaffin cell cultures [4] | decrease in the amount of brain CTFβ [5] [%]
CCOC(=O)[C@H]1O[C@@H]1C(=O)N[C@@H](CC(C)C)C(=O)NCCC(C)C [E64d] | No change | no change in subjective or objective symptoms or clinical tests | good absorption | no accumulation occurred | about 30% | lack of efficacy | 50 | 50 | significantly reduce amyloid load | do not affect | 1.06 + 4% | 92 + 7% | 101 + 3% | 100 + 3% | 98 + 3% | excellent therapeutic window |  | 
CCCNC(=O)[C@H]1O[C@@H]1C(=O)N[C@H](C(=O)N1CCC[C@H]1C(=O)OC)[C@@H](C)CC [CA074Me] |  |  |  |  |  |  | 50 | 50 | significantly reduce amyloid load | do not affect | 1.07 + 4% | 91 + 4% | 97 + 3% | 97 + 3% | 101 + 4% |  | reduced CTFβ production | 50
